Values quoted from earlier work in patent US6867197B1, “Method of targeting conjugate molecules to mitochondria” (Mitokor, priority 1995, dated 2005).

Test system: mitochondria
Details: high concentrations; NAO is a mitochondrial toxin at these concentrations

## CCCCCCCCC[n+]1c2cc(N(C)C)ccc2cc2ccc(N(C)C)cc21 [NAO, 10N-nonylacridine orange]
  concentrations at which electron transport, ATP hydrolysis and Pi-transport are inhibited and respiration disrupted: 3 to 10 µM
